In brackets after ≈: the same amount, converted by molar mass. Where two headings read alike, the source gives them in different places.

The conditions of data set [1]: cited from earlier work.
Data set [2] is described as follows: Solubility test of drug substances in biorelevant media and free fraction calculation. Type of data set: physicochemical. To be noted: for Free fraction: fraction of drug not entrapped in micelles in FeSSIF-V2, Eq. (8), from FaSSIF-V2/FeSSIF-V2 solubility; for Solubilization by bile micelles: in vitro solubility in biorelevant media. As for the experimental part:
(§1) Fasted State Simulated Gastric Fluid (FaSSGF) and Fasted State Simulated Intestinal Fluid version 2 (FaSSIF-V2) were used for dissolution tests and solubility tests. Fed State Simulated Intestinal Fluid version 2 (FeSSIF-V2) was used for solubility tests. These media contain sodium taurocholate as the bile acid. Their composition and preparation method have been previously reported and were prepared accordingly, except that FaSSGF was used without pepsin.
The excess amount of ezetimibe powder was added to 10 mL FaSSIF-V2 and FeSSIF-V2. Test tubes containing the drug substances in the biorelevant media were vigorously shaken at 37℃ ± 0.5℃ for 5 h. An approximately 5 mL sample was withdrawn using a plastic syringe, then filtered through a PVDF 0.45 µm filter. The filtrates (after discarding the first ca. 2 mL) were diluted with 50:50 v/v acetonitrile for analysis to prevent precipitation, except for that of ezetimibe tested in FeSSIF-V2. All solubility tests were conducted in triplicate.
TSKgel ODS-100Z 5 µm (4.6 mm × 15 cm, Tosoh Corporation, Tokyo, Japan) was used as analytical column for both drugs. Column temperature during analysis was set to 40℃. A mixture of perchlorate (Na) buffer pH 2.5 and acetonitrile (50:50, v/v) was used as mobile phase. […] Flow rate and injection volume were 1.2 mL/min and 10 μL, respectively.
Sodium taurocholate and lecithin concentration in FaSSIF-V2 are 3 mM and 0.2 mM, respectively, and those in FeSSIF-V2 are 10 mM and 2 mM, respectively. […] The formulation was considered able to exist in the small intestine for 4 h after administration. Initial intestinal fluid volume in both prandial states was set to 100 mL [31].

Data set [3] can be described thus: In vitro dissolution test of tablets in biorelevant media (USP apparatus II paddle). The format is physicochemical. To be noted: for Dissolution in FaSSIF-V2: tablet, 500 mL, paddle 50 rpm, up to 60 min. On the procedure:
as §1
For in vitro dissolution tests, a USP apparatus II paddle dissolution tester (NTR-6400AC, Toyama Sangyo Co., Ltd., Osaka, Japan) was used. The media volume of FaSSGF and FaSSIF-V2 was 300 mL and 500 mL, respectively, and temperature in the dissolution vessel was maintained at 37℃ ± 0.5℃. […] Paddle rotation speed during the dissolution test was maintained at 50 rpm for up to 60 min. The samples were filtered through PVDF 0.45 µm filters (Whatman, GD/X, 13 mm, Cytiva, Chicago, IL, USA) immediately after withdrawal, and filtrates were recovered after the first 2 mL was discarded. […] All dissolution tests were conducted in triplicate.
When the tablets […] during the infinity spin in the dissolution test, separate solubility measurements were performed, as described in the next paragraph.
TSKgel ODS-100Z 5 µm (4.6 mm × 15 cm, Tosoh Corporation, Tokyo, Japan) was used as analytical column for both drugs. Column temperature during analysis was set to 40℃. A mixture of perchlorate (Na) buffer pH 2.5 and acetonitrile (50:50, v/v) was used as mobile phase. […] Flow rate and injection volume were 1.2 mL/min and 10 μL, respectively. […]

The conditions of data set [4]: cited from earlier work. The source holds these as a separate data set.
The conditions of data set [5]: cited from earlier work. The source holds these as a separate data set.
Data set [6] is described as follows: Estimation of effective permeability (Peff) in the human small intestine from Caco-2 Papp.
Source text: The Papp for each compound was cited from previous reports [39, 40] or calculated using an equation [41] based on the reported partition coefficient [25, 42].
On the set-up of data set [7]: method as in earlier work. To be noted: cited from earlier work.
Where [8] appears, read: FaSSIF-V2, drug substance powder, 37℃, shaken 5 h, pH 6.5, read-out: Solubility in FaSSIF-V2.
Where [9] appears, read: FeSSIF-V2, 37 °C, fessif, thermodynamic from solid, drug substance powder, 37℃, shaken 5 h, pH 5.8, read-out: Solubility in FeSSIF-V2.

As for `O=C(O)[C@H]1O[C@@H](Oc2ccc([C@@H]3[C@@H](CC[C@H](O)c4ccc(F)cc4)C(=O)N3c3ccc(F)cc3)cc2)[C@H](O)[C@@H](O)[C@@H]1O` [glucuronide], the “Plasma concentration of glucuronide relative to parent drug in terms of AUC” value in data set [1] (humans, Zetia tablet) is given as “about seven-fold”.

A word on the solubility: it is the concentration that dissolves in the medium under given conditions. The term Log P denotes a log measure of how a compound divides between an organic and an aqueous phase. `Cc1cnc(NC(=O)C2=C(O)c3ccccc3S(=O)(=O)N2C)s1` [Meloxicam, meloxicam]: the solubility at 5 h in data set [2] (setting [8]) is 172 ± 12.3 µg/mL (≈ 489 µM); in data set [2] (setting [9]) it was 42.7 ± 1.53 µg/mL (≈ 122 µM); in data set [2] (blank FaSSIF-V2 (without surfactant), drug substance, medium without surfactant, read-out: Solubility in blank FaSSIF-V2) it was 164 µg/mL (≈ 467 µM); in data set [2] (blank FeSSIF-V2 (without surfactant), drug substance, medium without surfactant, read-out: Solubility in blank FeSSIF-V2), 32.5 µg/mL (≈ 92.5 µM). In addition, the Free fraction entry is listed as “Regard as 1” in data set [2] and 1 in data set [2] (listed as meloxicam). Further, the “Solubilization by bile micelles” value in data set [2] is recorded as “insignificant”. Further, the “Dissolution in FaSSIF-V2” value in data set [3] is on record as “about 80%”. The “Log P” value in data set [4] (calculated value based on apparent partition coefficient Log Papp) was 3.32.

As a reminder, the pKa is the negative logarithm of the acid dissociation constant. Broadly, the Papp is the rate of passage across a membrane or cell layer, normalised by area and donor concentration. In the case of `O=C1[C@H](CC[C@H](O)c2ccc(F)cc2)[C@@H](c2ccc(O)cc2)N1c1ccc(F)cc1` [Ezetimibe, ezetimibe], in data set [1], the “Effect of concomitant food on extent of absorption” value was “not affected”. Further, the solubility at 5 h in data set [2] (setting [8]) was 3.79 ± 0.133 µg/mL (≈ 9.26 µM). Also, in data set [2] (setting [9]), the solubility at 5 h was 22.3 ± 0.203 µg/mL (≈ 54.5 µM). In data set [2], the Free fraction is 0.169 and the “Solubilization by bile micelles” value is “clearly shown to be solubilized by the mixed micelles”. Moreover, in data set [5], the pKa is 9.7. Besides, the concentration in solution in data set [3] (FaSSIF-V2, for PK simulation, Zetia: infinity point of tablet dissolution test, Mobic: adopted from drug substance solubility test) (solubility at 120 min) came to 4.93 µg/mL (≈ 12 µM). Further, the “Dissolution in FaSSIF-V2” value in data set [3] is reported as “around 20%”. The Papp in data set [6] is 121 ×10⁻⁶ cm/s. The “Log P” value in data set [4] is listed as 4.5. For the same compound, the “Solubility in the aqueous phase” value in data set [7] is reported as “virtually insoluble”.

Source of the values: paper PMC11636765, “Importance of Considering Fed-State Gastrointestinal Physiology in Predicting the Reabsorption of Enterohepatic Circulation of Drugs” (Pharmaceutical Research, 2024).
